# In patent publication US20250092031A1, “RIPK3 INHIBITORS AND METHODS OF USE” (Momentum Therapeutics, Inc., priority 2023, published 2025):
# How the values were obtained:
# Human HT-29 cells = experiment: Necroptosis inhibition assay in HT-29 cells (hTNFα + zVAD + SMAC mimetic, Sytox Green/Hoechst); assay type: cell-based; conditions: 10 ng/ml hTNFα, 20 μM zVAD and 100 nM SMAC mimetic, 6 hours, Sytox/Hoechst positive cells, read-out: HT29 necroptosis inhibition IC50
# Procedure: Human HT-29 cells (ATCC-HTB-38) were seeded at 10,000 cells/well in a 96-well plate. Cells were treated 48 hours after seeding with 10 ng/ml hTNFα (R&D Systems), 20 μM zVAD (ChemShuttle) and 100 nM SMAC mimetic (MedChem Express) in the presence of different concentrations of compounds ranging from […] to 0.01 μM. Cells treated with 0.1% DMSO or cells treated with TNFα+zVAD+SMAC mimetic were used as control and vehicle respectively.
# Assay plates containing cells were incubated for 6 hours at 37° C. and 5% CO2. Necroptosis was assessed using Sytox Green Nucleic Acid Stain (Invitrogen) and Hoechst staining. After incubation, 100 μL of Sytox dye at 2 μM (2×) diluted in HBSS 1× was added to each well. At the same time, Hoechst stain is added to a final concentration of 10 μM and incubated for 15 min at room temperature. Images were taken for Sytox and Hoechst using the Cytation 5 microplate reader with DAPI and GFP filter cubes (Biotek). Sytox and Hoechst positive cells were counted with CellProfiler software.
# (§1) Percentage of necroptosis inhibition was calculated as the percent compared to control and vehicle conditions which correspond to 100% and 0% respectively. The half-maximum necroptosis inhibition (IC50) levels were calculated using GraphPad Prism software and are shown in Table 3 (NT represents compound not tested).
# Murine L929 cells = experiment: Necroptosis inhibition assay in L929 cells (mTNFα + zVAD, Sytox Green); assay type: cell-based; conditions: Mus musculus, 10 ng/ml mTNFα and 20 μM zVAD, 6 hours, Sytox Green fluorescence
# Procedure: Murine L929 cells (ATCC-CCL-1) were seeded at 10,000 cells/well in a 96-well plate. Cells were treated 48 hours after seeding with 10 ng/ml mTNFα (R&D Systems) and 20 μM zVAD (ChemShuttle) in the presence of different concentrations of compounds ranging from […] to 0.01 μM. Cells treated with 0.1% DMSO or cells treated with TNFα+zVAD were used as control and vehicle respectively.
# Assay plates containing cells were incubated for 6 hours at 37° C. and 5% CO2. Necroptosis was assessed using Sytox Green Nucleic Acid Stain (Invitrogen). After incubation, 100 μL of Sytox dye at 2 μM (2×) diluted in HBSS 1× was added in each well and incubated for 15 min at room temperature. Fluorescence (500ex/530em) was recorded using the Cytation 5 microplate reader (Biotek).
# as §1
structure (smiles),measurement,setting,value
"Fc1cc(CN2CC3CNCC3C2)ccc1-c1ccc2nccc(Nc3ccc4scnc4c3)c2c1 (centres unmarked) [Compound 299, N-(6-(2-fluoro-4-((hexahydropyrrolo[3,4-c]pyrrol-2(1H)-yl)methyl)phenyl)quinolin-4-yl)benzo[d]thiazol-5-amine]",IC50,Human HT-29 cells,462 nM
same,IC50,Murine L929 cells,987 nM
"Fc1cc(CN2CC3CNCC3C2)ccc1-c1ccc2c(Nc3ccc4scnc4c3)ccnc2c1 (centres unmarked) [Compound 300, N-(7-(2-fluoro-4-((hexahydropyrrolo[3,4-c]pyrrol-2(1H)-yl)methyl)phenyl)quinolin-4-yl)benzo[d]thiazol-5-amine]",IC50,Human HT-29 cells,721 nM
same,IC50,Murine L929 cells,461 nM
"O=C(c1ccc(-c2ccc3c(Nc4ccc5scnc5c4)ccnc3c2)c(F)c1)N1C[C@@H]2C[C@H]1CN2 [Compound 301, (4-(4-(benzo[d]thiazol-5-ylamino)quinolin-7-yl)-3-fluorophenyl)((1S,4S)-2,5-diazabicyclo[2.2.1]heptan-2-yl)methanone]",IC50,Human HT-29 cells,197 nM
same,IC50,Murine L929 cells,427 nM
"O=C(c1ccc(-c2ccc3c(Nc4ccc5scnc5c4)ccnc3c2)cc1F)N1CC2CNCC2C1 (centres unmarked) [Compound 303, (4-(4-(benzo[d]thiazol-5-ylamino)quinolin-7-yl)-2-fluorophenyl)(hexahydropyrrolo[3,4-c]pyrrol-2(1H)-yl)methanone]",IC50,Human HT-29 cells,690 nM
same,IC50,Murine L929 cells,977 nM
"O=C(c1ccc(-c2ccc3nccc(Nc4ccc5scnc5c4)c3c2)cc1F)N1CC2CNCC2C1 (centres unmarked) [Compound 305, (4-(4-(benzo[d]thiazol-5-ylamino)quinolin-6-yl)-2-fluorophenyl)(hexahydropyrrolo[3,4-c]pyrrol-2(1H)-yl)methanone]",IC50,Human HT-29 cells,402 nM
same,IC50,Murine L929 cells,> 10000 nM
"O=C(c1ccc(-c2ccc3nccc(Nc4ccc5scnc5c4)c3c2)c(F)c1)N1C[C@H]2CNC[C@H]2C1 [Compound 306, (4-(4-(benzo[d]thiazol-5-ylamino)quinolin-6-yl)-3-fluorophenyl)((3aR,6aS)-hexahydropyrrolo[3,4-c]pyrrol-2(1H)-yl)methanone]",IC50,Human HT-29 cells,148 nM
same,IC50,Murine L929 cells,< 10000 nM
"O=C(c1ccc(-c2ccc3c(Nc4ccc5scnc5c4)ccnc3c2)c(F)c1)N1C[C@H]2CNC[C@H]2C1 [Compound 307, (4-(4-(benzo[d]thiazol-5-ylamino)quinolin-7-yl)-3-fluorophenyl)((3aR,6aS)-hexahydropyrrolo[3,4-c]pyrrol-2(1H)-yl)methanone]",IC50,Human HT-29 cells,271 nM
same,IC50,Murine L929 cells,774 nM
"NC1CN(C(=O)c2ccc(-c3ccc4c(Nc5ccc6scnc6c5)ccnc4c3)c(F)c2)C1 [Compound 310, (3-aminoazetidin-1-yl)(4-(4-(benzo[d]thiazol-5-ylamino)quinolin-7-yl)-3-fluorophenyl)methanone]",IC50,Human HT-29 cells,294 nM
same,IC50,Murine L929 cells,663 nM
"Fc1cc(OC2CC3(CNC3)C2)ccc1-c1ccc2nccc(Nc3ccc4scnc4c3)c2c1 [Compound 311, N-(6-(4-(2-azaspiro[3.3]heptan-6-yloxy)-2-fluorophenyl)quinolin-4-yl)benzo[d]thiazol-5-amine]",IC50,Human HT-29 cells,732 nM
same,IC50,Murine L929 cells,1030 nM
"O=C(c1ccc(-c2ccc3c(Nc4ccc5scnc5c4)ccnc3c2)c(Cl)c1)N1CC2(CNC2)C1 [Compound 312, (4-(4-(benzo[d]thiazol-5-ylamino)quinolin-7-yl)-3-chlorophenyl)(2,6-diazaspiro[3.3]heptan-2-yl)methanone]",IC50,Human HT-29 cells,1560 nM
same,IC50,Murine L929 cells,668 nM
"O=C(c1ccc(-c2ccc3c(Nc4ccc5scnc5c4)ccnc3c2)c(F)c1)N1[C@@H]2CNC[C@H]1C2 [Compound 313, (4-(4-(benzo[d]thiazol-5-ylamino)quinolin-7-yl)-3-fluorophenyl)((1R,5S)-3,6-diazabicyclo[3.1.1]heptan-6-yl)methanone]",IC50,Human HT-29 cells,302 nM
same,IC50,Murine L929 cells,402 nM
"CN1CCN(C(=O)c2ccc(-c3ccc4nccc(Nc5ccc6scnc6c5)c4c3)c(F)c2)CC1(C)C [Compound 315, (4-(4-(benzo[d]thiazol-5-ylamino)quinolin-6-yl)-3-fluorophenyl)(3,3,4-trimethylpiperazin-1-yl)methanone]",IC50,Human HT-29 cells,120 nM
same,IC50,Murine L929 cells,396 nM
"CS(=O)(=O)N1CC2(CN(C(=O)c3ccc(-c4ccc5nccc(Nc6ccc7scnc7c6)c5c4)c(F)c3)C2)C1 [Compound 316, (4-(4-(benzo[d]thiazol-5-ylamino)quinolin-6-yl)-3-fluorophenyl)(6-(methylsulfonyl)-2,6-diazaspiro[3.3]heptan-2-yl)methanone]",IC50,Human HT-29 cells,269 nM
same,IC50,Murine L929 cells,1580 nM
"O=C(c1ccc(-c2ccc3nccc(Nc4ccc5scnc5c4)c3c2)c(F)c1)N1CCC(O)CC1 [Compound 317, (4-(4-(benzo[d]thiazol-5-ylamino)quinolin-6-yl)-3-fluorophenyl)(4-hydroxypiperidin-1-yl)methanone]",IC50,Human HT-29 cells,169 nM
same,IC50,Murine L929 cells,707 nM
"CC1(O)CCN(C(=O)c2ccc(-c3ccc4nccc(Nc5ccc6scnc6c5)c4c3)c(F)c2)CC1 [Compound 318, (4-(4-(benzo[d]thiazol-5-ylamino)quinolin-6-yl)-3-fluorophenyl)(4-hydroxy-4-methylpiperidin-1-yl)methanone]",IC50,Human HT-29 cells,53.7 nM
same,IC50,Murine L929 cells,686 nM
"CC1(O)CCN(Cc2ccc(-c3ccc4nccc(Nc5ccc6scnc6c5)c4c3)c(F)c2)CC1 [Compound 319, 1-(4-(4-(benzo[d]thiazol-5-ylamino)quinolin-6-yl)-3-fluorobenzyl)-4-methylpiperidin-4-ol]",IC50,Human HT-29 cells,284 nM
same,IC50,Murine L929 cells,301 nM
"CNC(=O)CNCc1ccc(-c2ccc3nccc(Nc4ccc5scnc5c4)c3c2)c(F)c1 [Compound 320, 2-((4-(4-(benzo[d]thiazol-5-ylamino)quinolin-6-yl)-3-fluorobenzyl)amino)-N-methylacetamide]",IC50,Human HT-29 cells,243 nM
same,IC50,Murine L929 cells,444 nM
"COC1CCN(C(=O)c2ccc(-c3ccc4nccc(Nc5ccc6scnc6c5)c4c3)c(F)c2)CC1 [Compound 321, (4-(4-(benzo[d]thiazol-5-ylamino)quinolin-6-yl)-3-fluorophenyl)(4-methoxypiperidin-1-yl)methanone]",IC50,Human HT-29 cells,109 nM
same,IC50,Murine L929 cells,238 nM
"O=C(c1ccc(-c2cc3c(Nc4ccc5scnc5c4)ccnc3cc2F)c(F)c1)N1CCOCC1 [Compound 322, (4-(4-(benzo[d]thiazol-5-ylamino)-7-fluoroquinolin-6-yl)-3-fluorophenyl)(morpholino)methanone]",IC50,Human HT-29 cells,111 nM
same,IC50,Murine L929 cells,175 nM
"Fc1cc(CN2CC3(CNC3)C2)ccc1-c1ccc2c(Nc3ccc4scnc4c3)ccnc2c1 [Compound 323, N-(7-(4-((2,6-diazaspiro[3.3]heptan-2-yl)methyl)-2-fluorophenyl)quinolin-4-yl)benzo[d]thiazol-5-amine]",IC50,Human HT-29 cells,296 nM
same,IC50,Murine L929 cells,454 nM
"O=C(c1ccc(-c2ccc3nccc(Nc4ccc5scnc5c4)c3c2)c(F)c1)N1CC2(COC2)C1 [Compound 324, (4-(4-(benzo[d]thiazol-5-ylamino)quinolin-6-yl)-3-fluorophenyl)(2-oxa-6-azaspiro[3.3]heptan-6-yl)methanone]",IC50,Human HT-29 cells,76.5 nM
same,IC50,Murine L929 cells,223 nM
"O=C(NC1CCOCC1)c1ccc(-c2ccc3nccc(Nc4ccc5scnc5c4)c3c2)c(F)c1 [Compound 325, 4-(4-(benzo[d]thiazol-5-ylamino)quinolin-6-yl)-3-fluoro-N-(tetrahydro-2H-pyran-4-yl)benzamide]",IC50,Human HT-29 cells,69.7 nM
same,IC50,Murine L929 cells,665 nM
"O=C(c1ccc(-c2ccc3nccc(Nc4ccc5scnc5c4)c3c2)cn1)N1CCOCC1 [Compound 326, (5-(4-(benzo[d]thiazol-5-ylamino)quinolin-6-yl)pyridin-2-yl)(morpholino)methanone]",IC50,Human HT-29 cells,305 nM
same,IC50,Murine L929 cells,1790 nM
"CN1CCN(Cc2ccc(-c3ccc4c(Nc5ccc6scnc6c5)ccnc4c3)c(F)c2)CC1=O [Compound 327, 4-(4-(4-(benzo[d]thiazol-5-ylamino)quinolin-7-yl)-3-fluorobenzyl)-1-methylpiperazin-2-one]",IC50,Human HT-29 cells,25.2 nM
same,IC50,Murine L929 cells,160 nM
"CC(C)S(=O)(=O)c1ccc2nccc(Nc3ccc4scnc4c3)c2c1 [Compound A, N-(6-(isopropylsulfonyl)quinolin-4-yl)benzo[d]thiazol-5-amine, reference compound]",IC50,Human HT-29 cells,1260 nM
same,IC50,Murine L929 cells,1960 nM
